In data set [1] the target is Sodium-dependent serotonin transporter (Rattus norvegicus) (UniProt P31652). Kind of data set: Inhibition of serotonin transporter in rat brain tissue assessed as inhibition of [3H]-5-hydroxytryptamine reuptake at 1 uM relative to control. The class given is tissue-based.
Data set [2] concerns the target T1, 5-hydroxytryptamine receptor 1A (Homo sapiens) (UniProt P08908).
T1 sequence (whole entry): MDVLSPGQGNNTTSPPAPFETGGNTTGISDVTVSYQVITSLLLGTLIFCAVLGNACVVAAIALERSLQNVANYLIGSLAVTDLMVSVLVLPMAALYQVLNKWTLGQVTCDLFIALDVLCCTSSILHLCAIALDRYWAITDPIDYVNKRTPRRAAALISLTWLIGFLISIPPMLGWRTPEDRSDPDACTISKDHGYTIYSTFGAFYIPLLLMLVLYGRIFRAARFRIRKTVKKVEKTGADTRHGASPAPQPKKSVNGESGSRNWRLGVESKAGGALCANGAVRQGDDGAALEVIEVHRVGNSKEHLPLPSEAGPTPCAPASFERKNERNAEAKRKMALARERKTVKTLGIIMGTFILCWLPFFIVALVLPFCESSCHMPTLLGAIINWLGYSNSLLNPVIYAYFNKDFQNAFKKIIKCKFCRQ
The data set can be described thus: Displacement of [3H][…] from 5-HT1A receptor in human HEK293 cells at 1 uM measured after 60 mins by scintillation counting method relative to control. The class given is cell-based.

Data set [3] can be described thus: in vitro. To be noted: human, liver microsomes. For orientation: Liver microsomes are vesicles of endoplasmic reticulum, rich in cytochrome P450 enzymes.
A short description of data set [4]: in vitro. To be noted: human, liver microsomes. The source holds these as a separate data set.
Description: Metabolic stability in human liver microsomes assessed as clearance
Data set [5] can be described thus: in vitro. The note with it: mouse, liver microsomes.
Description: Metabolic stability in mouse liver microsomes assessed as half life
Data set [6] in a line: in vitro. To be noted: mouse, liver microsomes. The source holds these as a separate data set.
Description: Metabolic stability in mouse liver microsomes assessed as clearance
The target of data set [7] is T2, 5-hydroxytryptamine receptor 1A (Homo sapiens, UniProt P08908).
T2 sequence (P08908 whole entry): T1 sequence (whole entry)
The data set can be described thus: Displacement of [3H][…] from 5-HT1A receptor in human HEK293 cells measured after 60 mins by scintillation counting method. The class given is cell-based. For orientation: In a radioligand displacement assay an active substance lowers the binding of a labelled ligand.

Data set [8] deals with Sodium-dependent serotonin transporter (Rattus norvegicus, UniProt P31652). Kind of data set: Inhibition of serotonin transporter in rat brain tissue assessed as inhibition of [3H]-5-hydroxytryptamine reuptake. The class given is tissue-based.
Data set [9] has as its system Mus musculus. The data set can be described thus: Antidepressant activity in ICR mouse assessed as reduction in immobility time at 0.6 mg/kg, po for 7 days by tail suspension test. The class given is functional. Also noted: scale not given: the % may be the effect or the level left. To be noted: time 7 day.
Data set [10] relates to Mus musculus. The data set can be described thus: Antidepressant activity in ICR mouse assessed as reduction in immobility time at 10 mg/kg, po for 7 days by tail suspension test. The class given is functional. Also noted: scale not given: the % may be the effect or the level left. To be noted: time 7 day.
The subject of data set [11] is Mus musculus. The data set can be described thus: Antidepressant activity in ICR mouse assessed as reduction in immobility time at 0.6 mg/kg, po for 7 days by forced swimming test. The class given is functional. Also noted: scale not given: the % may be the effect or the level left. The note with it: time 7 day.
Data set [12] in a line: Binding affinity to 5-HT6 receptor (unknown origin) assessed as inhibition constant. Also on record: species or system Homo sapiens.
In data set [13] the target is 5-hydroxytryptamine receptor 1B (Homo sapiens) (UniProt P28222). Kind of data set: Inhibition of 5-HT1B receptor (unknown origin). To be noted: concentration not given here.
Data set [14] addresses 5-hydroxytryptamine receptor 1D (Homo sapiens) (UniProt P28221). Kind of data set: Inhibition of 5-HT1D receptor (unknown origin). The note with it: concentration not given here.
The target of data set [15] is 5-hydroxytryptamine receptor 2A (Homo sapiens) (UniProt P28223). The data set can be described thus: Inhibition of 5-HT2A receptor (unknown origin). To be noted: concentration not given here.
Data set [16] deals with T3, 5-hydroxytryptamine receptor 2C (Homo sapiens) (UniProt P28335).
T3 sequence (whole entry): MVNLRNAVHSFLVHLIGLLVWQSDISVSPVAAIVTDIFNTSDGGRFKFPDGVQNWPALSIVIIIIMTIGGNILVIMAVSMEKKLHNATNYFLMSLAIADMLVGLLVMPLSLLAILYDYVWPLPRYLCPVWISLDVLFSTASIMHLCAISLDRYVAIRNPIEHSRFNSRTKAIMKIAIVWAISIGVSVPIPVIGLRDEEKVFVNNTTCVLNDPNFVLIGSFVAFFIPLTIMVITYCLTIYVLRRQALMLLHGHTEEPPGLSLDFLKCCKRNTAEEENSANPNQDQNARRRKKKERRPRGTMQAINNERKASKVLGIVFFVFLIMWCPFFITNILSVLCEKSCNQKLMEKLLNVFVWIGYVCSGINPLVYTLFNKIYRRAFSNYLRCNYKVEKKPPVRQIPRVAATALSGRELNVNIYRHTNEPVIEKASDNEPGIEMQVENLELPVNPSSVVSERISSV
Kind of data set: Inhibition of 5-HT2C receptor (unknown origin). The note with it: concentration not given here.

Data set [17] deals with Serotonin 3 (5-HT3) receptor (Homo sapiens) (UniProt P46098+A5X5Y0+O95264+Q70Z44+Q8WXA8). The data set can be described thus: Inhibition of 5-HT3 receptor (unknown origin). To be noted: concentration not given here. The class given is protein-complex assay.
The species named for data set [18] is Homo sapiens. The data set can be described thus: Inhibition of 5-HT6 receptor (unknown origin). To be noted: concentration not given here.
For data set [19], the species on record is Homo sapiens. Kind of data set: Inhibition of 5-HT7 receptor (unknown origin). To be noted: concentration not given here.
Data set [20] in a line: Binding affinity to 5-HT7 receptor (unknown origin) assessed as inhibition constant. Also noted: species or system Homo sapiens.
Data set [21] relates to Mus musculus. The data set can be described thus: Antidepressant activity in ICR mouse assessed as reduction in immobility time at 0.6 to 80 mg/kg, po for 7 days by forced swimming test. The class given is functional, organism-based. The note with it: dose 0.6-80 mg/kg, time 7.0 day.

Calls of active or inactive are those of the source.

Sodium-dependent serotonin transporter (Rattus norvegicus), sequence (P31652 whole entry): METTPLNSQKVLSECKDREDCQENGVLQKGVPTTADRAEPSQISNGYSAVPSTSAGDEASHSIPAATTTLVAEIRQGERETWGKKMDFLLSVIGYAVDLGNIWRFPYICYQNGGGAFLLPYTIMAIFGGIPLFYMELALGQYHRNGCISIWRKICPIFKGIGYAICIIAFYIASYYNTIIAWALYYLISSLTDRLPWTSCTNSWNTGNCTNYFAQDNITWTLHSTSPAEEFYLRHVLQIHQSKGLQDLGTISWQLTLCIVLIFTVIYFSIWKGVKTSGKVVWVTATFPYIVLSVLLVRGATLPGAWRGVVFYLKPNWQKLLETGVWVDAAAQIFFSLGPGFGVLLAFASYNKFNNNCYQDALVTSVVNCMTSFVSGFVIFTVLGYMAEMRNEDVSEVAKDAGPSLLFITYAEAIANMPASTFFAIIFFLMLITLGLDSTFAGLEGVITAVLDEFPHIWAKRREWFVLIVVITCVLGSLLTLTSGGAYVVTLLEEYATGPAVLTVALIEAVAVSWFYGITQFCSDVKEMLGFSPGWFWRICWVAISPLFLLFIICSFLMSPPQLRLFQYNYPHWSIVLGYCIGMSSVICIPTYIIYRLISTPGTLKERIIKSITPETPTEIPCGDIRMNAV
Sodium-dependent serotonin transporter, sequence (P31652 whole entry): as above
5-hydroxytryptamine receptor 2A (Homo sapiens), sequence (P28223 whole entry): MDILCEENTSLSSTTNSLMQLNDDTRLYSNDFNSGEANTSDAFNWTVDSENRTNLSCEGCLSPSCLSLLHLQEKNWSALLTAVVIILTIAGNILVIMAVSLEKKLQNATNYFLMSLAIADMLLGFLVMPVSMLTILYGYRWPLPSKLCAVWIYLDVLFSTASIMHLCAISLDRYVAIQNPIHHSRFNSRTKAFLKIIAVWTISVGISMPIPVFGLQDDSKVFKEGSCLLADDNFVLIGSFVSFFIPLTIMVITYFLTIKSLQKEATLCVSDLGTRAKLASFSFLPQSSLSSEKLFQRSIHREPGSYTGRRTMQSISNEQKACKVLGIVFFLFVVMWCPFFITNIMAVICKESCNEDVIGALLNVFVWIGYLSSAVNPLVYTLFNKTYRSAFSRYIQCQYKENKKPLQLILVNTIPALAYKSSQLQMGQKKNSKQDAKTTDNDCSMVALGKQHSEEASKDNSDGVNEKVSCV
5-hydroxytryptamine receptor 1B (Homo sapiens), sequence (P28222 whole entry): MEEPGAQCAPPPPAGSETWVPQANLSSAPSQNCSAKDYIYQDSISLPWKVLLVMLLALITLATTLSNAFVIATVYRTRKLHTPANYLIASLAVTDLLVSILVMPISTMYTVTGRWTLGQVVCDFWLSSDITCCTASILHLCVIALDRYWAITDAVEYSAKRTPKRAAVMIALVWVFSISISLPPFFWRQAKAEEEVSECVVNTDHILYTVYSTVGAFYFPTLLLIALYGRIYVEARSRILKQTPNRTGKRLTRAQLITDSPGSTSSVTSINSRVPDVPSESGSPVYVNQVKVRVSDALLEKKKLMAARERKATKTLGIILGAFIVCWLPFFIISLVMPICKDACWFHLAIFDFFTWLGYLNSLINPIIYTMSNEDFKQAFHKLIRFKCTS
5-hydroxytryptamine receptor 1D (Homo sapiens), sequence (P28221 whole entry): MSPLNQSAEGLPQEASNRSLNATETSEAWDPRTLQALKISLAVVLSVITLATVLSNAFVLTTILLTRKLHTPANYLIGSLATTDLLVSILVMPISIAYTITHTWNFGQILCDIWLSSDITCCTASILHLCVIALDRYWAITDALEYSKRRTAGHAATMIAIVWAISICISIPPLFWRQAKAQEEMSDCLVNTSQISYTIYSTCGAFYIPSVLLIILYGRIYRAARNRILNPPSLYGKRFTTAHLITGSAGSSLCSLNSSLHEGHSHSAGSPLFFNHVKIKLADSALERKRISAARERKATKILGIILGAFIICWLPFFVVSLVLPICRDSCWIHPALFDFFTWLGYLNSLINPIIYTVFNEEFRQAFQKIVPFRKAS

As to `NC(=O)c1ccccc1C(=O)N1CCC(CNCCCc2c[nH]c3ccc(F)cc23)CC1`, the inhibition in [1] came out at 102%; in data set [2], 98%. The half-life in data set [3] worked out at 10 min; in data set [5] it was 13.2 min. Further, the microsomal CLint in data set [4] turned out to be 138 µL/min/mg; in [6], 105 µL/min/mg.

`O=C(c1ccc(F)c(Cl)c1)N1CCC(CNCc2cccc(-n3cccn3)n2)CC1`: in [7], the Ki was 1.54 nM.

Regarding `Fc1ccc(N2CCN(CCCc3c[nH]c4ccc(F)cc34)CC2)c(-c2ccccc2)c1`, in data set [8], the concentration for half-maximal inhibition (IC50) was determined as 177 nM. For the same molecule, the Ki in [7] (read-out: Ki) stood at 12 nM.

With `O=C(c1ccc(F)c(F)c1)N1CCC(CNCCCc2c[nH]c3ccc(F)cc23)CC1`, the inhibition in data set [1] is 103%; in data set [2] it was 99%. Besides, the half-life in data set [3] is 19.5 min. This molecule came in with a microsomal CLint in data set [4] of 71.2 µL/min/mg.

As for `O=C(c1ccc(F)cc1)N1CCC(CNCCCc2c[nH]c3ccc(F)cc23)CC1`, the inhibition in data set [1] is 101%; in data set [2] it was 100%. The half-life in [3] was found to be 16.4 min. Further, the microsomal CLint in data set [4] worked out at 84.3 µL/min/mg.

With `O=C(c1cccc(Cl)c1)N1CCC(CNCCCc2c[nH]c3ccc(F)cc23)CC1`, the inhibition in data set [1] came out at 103%; in data set [2], 101%. Also, the half-life in [3] stood at 9.07 min; in data set [5], 27.8 min. Also, the microsomal CLint in [4] is 153 µL/min/mg; in [6], 49.8 µL/min/mg.

For the molecule `CCCN(CCCc1c[nH]c2ccc(F)cc12)CC1CCN(C(=O)c2ccc(F)c(Cl)c2)CC1`, the inhibition in data set [1] amounted to 101%; in data set [2] it was 86%.

In the case of `O=C(c1ccc(Cl)cc1)N1CCC(CNCCCc2c[nH]c3ccc(F)cc23)CC1`, the inhibition came to 103% in [1] and 100% in [2]. In data set [3], this molecule yielded a half-life of 19.5 min. In addition, the microsomal CLint in data set [4] was 70.9 µL/min/mg.

For `O=C(c1ccc(Cl)c(Cl)c1)N1CCC(CNCCCc2c[nH]c3ccc(F)cc23)CC1`, the inhibition amounted to 101% in [1] and 100% in data set [2]. Moreover, in data set [8], the IC50 was 17 nM. Moreover, the Ki in data set [7] (read-out: Ki) stood at 0.097 nM. For the same molecule, the half-life in data set [3] stood at 30.5 min; in [5], 30.8 min. For the same molecule, the microsomal CLint in data set [4] amounted to 45.4 µL/min/mg; in [6], 44.9 µL/min/mg.

Take `CN(CCCc1c[nH]c2ccc(F)cc12)CC1CCN(C(=O)c2ccc(F)c(Cl)c2)CC1`: the inhibition stood at 102% in data set [1] and 94% in data set [2].

With `NC(=O)c1ccc(C(=O)N2CCC(CNCCCc3c[nH]c4ccc(F)cc34)CC2)cc1`, the inhibition in data set [1] is 100%; in data set [2], 98%. Moreover, the figures for the half-life in [3] and in data set [5] were 330 min and 102 min, respectively. For the same molecule, the microsomal CLint in [4] was 4.2 µL/min/mg; in [6], 13.6 µL/min/mg.

Regarding `O=C(c1ccc(F)c(Cl)c1)N1CCC(CNCCc2c[nH]c3ccc(F)cc23)CC1`, the inhibition in [1] came to 101%; in data set [2], 93%.

In the case of `Cc1ccc(C(=O)N2CCC(CNCCCc3c[nH]c4ccc(F)cc34)CC2)cc1`, the inhibition in [1] and in data set [2] was 99% throughout. The molecule also had a half-life in [3] of 4.48 min. The molecule further showed a microsomal CLint in data set [4] of 310 µL/min/mg.

In the case of `O=C(c1ccc(F)c(Cl)c1)N1CCC(CNCCCCCc2c[nH]c3ccc(F)cc23)CC1`, the inhibition was 101% in data set [1] and 92% in data set [2].

With `O=C(c1ccc(F)c(Cl)c1)N1CCC(CNCCCCc2c[nH]c3ccc(F)cc23)CC1`, the inhibition was determined as 103% in data set [1] and 99% in data set [2]. The figures for the half-life in data set [3] and in data set [5] were 11.7 min and 45 min, respectively. Besides, the microsomal CLint in data set [4] stood at 118 µL/min/mg; in data set [6], 30.8 µL/min/mg.

As to `O=C(c1ccc(F)c(Cl)c1)N1CCC(NCCCc2c[nH]c3ccc(F)cc23)CC1`, the inhibition in data set [1] is 102%; in [2] it was 96%.

As for `O=C(c1ccc(F)c(Cl)c1)N1CCC(CNCCCc2c[nH]c3ccc(F)cc23)CC1`, the Activity is recorded as 19% in [9], 24% in [10] and 34% in data set [11]. In addition, the results for the Ki in data set [12], in data set [7] (read-out: Ki) and in [20] were 150 nM, 0.069 nM and 36 nM, respectively. Moreover, the inhibition in data set [13] was < 75%; in data set [1], 101%; in data set [2] it was 99%; in data set [14], < 75%; in [15], < 75%; in data set [16], < 75%. In addition, the inhibition in data set [17] was < 75%; in data set [18] it was 82%; in data set [19] it was 86.5%. In addition, the IC50 in data set [8] worked out at 8.2 nM. The outcome in data set [21] was Active. Besides, the half-life in [3] is 26.8 min; in [5] it was 61.6 min. In addition, the microsomal CLint is 51.8 µL/min/mg in data set [4] and 22.5 µL/min/mg in data set [6].

In the case of `N#Cc1ccc2[nH]cc(CCCNCC3CCN(C(=O)c4ccc(F)c(Cl)c4)CC3)c2c1`, the results for the inhibition in data set [1] and in data set [2] were 103% and 100%, respectively. Also, the half-life in data set [3] stood at 12.2 min. In data set [4], this molecule came in with a microsomal CLint of 113 µL/min/mg.

As for `Cc1cc(C(=O)N2CCC(CNCCCc3c[nH]c4ccc(F)cc34)CC2)ccc1F`, the figures for the inhibition in data set [1] and in [2] were 103% and 100%, respectively. This molecule also registered a half-life in data set [3] of 3.86 min. In data set [4], this molecule showed a microsomal CLint of 559 µL/min/mg.

`N#Cc1ccc2[nH]cc(CCCCN3CCN(c4ccc5oc(C(N)=O)cc5c4)CC3)c2c1` [VILAZODONE]: the half-life is 26.9 min in [3] and 23.1 min in [5]. Moreover, the microsomal CLint worked out at 51.6 µL/min/mg in data set [4] and 60.6 µL/min/mg in [6].

On to `NC(=O)c1cccc(C(=O)N2CCC(CNCCCc3c[nH]c4ccc(F)cc34)CC2)c1`, for which the inhibition in data set [1] worked out at 102%; in data set [2] it was 98%. In addition, the half-life in data set [3] was 154 min; in data set [5], 277 min. The results for the microsomal CLint in [4] and in data set [6] were 9 µL/min/mg and 5 µL/min/mg, respectively.

Consider `Fc1ccc(OCCN2CCC(c3c[nH]c4ccc(F)cc34)CC2)c(-c2ccccc2)c1`, for which the IC50 in data set [8] amounted to 0.5 nM. For the same molecule, in data set [7] (read-out: Ki), the Ki came out at 0.2 nM.

Usually inhibition stands for the change of the read-out against control, counted positive when it falls. Usually half-life stands for the time needed for the level to fall by half in the phase considered. Broadly, the microsomal CLint is the capacity of the preparation to metabolise the compound, expressed as a volume cleared per time. One may read the Ki as the equilibrium dissociation constant of an inhibitor or competing ligand from its target. Usually IC50 stands for the midpoint of a concentration-inhibition curve.

The record behind these values is ChEMBL document CHEMBL5214965, “Synthesis and antidepressant activity of novel 1-(1-benzoylpiperidin-4-yl) methanamine derivatives selectively targeting SSRI/5-HT1A” (Bioorg Med Chem Lett, 2022).
